From patent publication US9974860B2, “Aqueous solution formulation and method for manufacturing same” (Akiko ITAI, priority 2013, dated 2018)
Read-outs that look alike come from different tables or passages of the source.

How the values were obtained:
[1] = Pharmacokinetic study, intravenous administration of aqueous solution of Working Example 1; format: in vivo, Sprague-Daweley IGS rats; details: i.v.; for C0 / AUC(0-t): Sprague-Dawley IGS, rat, blood, iv, average of three; for AUC(0-t): read-out: AUC0-24
Source text: The aqueous solution obtained in Working Example 1 was filtered and sterilized with Millex (registered trademark)-GV (0.22 μm; available from Millipore Japan Corporation/Merck Millipore Corporation) and intravenously administered to female and male Sprague-Daweley IGS rats (6 weeks old) to investigate the pharmacokinetics of Compound (I).
As groups of animals, female and male Sprague-Daweley IGS rats (available from Charles River Laboratories Japan, Inc.) were used. The rats were 6 weeks old. The male rats had body weights of 166 to 189 g, and the female rats had body weights of 123 to 145 g.
The rats were quarantined and acclimated in a SPF (specific pathogen free) laboratory for animal experimentations for seven days, and their states of health were simultaneously observed. Each of the rats was kept in a sterilized stainless cage. In the SPF laboratory for animal experimentations, the temperature was maintained at 20.6 to 22.5° C., and the relative humidity was maintained at 44 to 60%. In the SPF laboratory for animal experimentations, ventilation was provided fifteen times per hour. Regarding illumination in the SPF laboratory for animal experimentations, a bright state and a dark state were switched every 12 hours.
As foods for rats, a standard dry food in stick-shape (whose components were already analyzed) was used. As drinking water, tap water which was confirmed to be within a range of the reference value was used, and the rats were allowed to freely drink it.
The above-mentioned quarantined rats were randomly divided into the following three groups (four female rats and four male rats per group) by weight.
(1) Group 1: the aqueous solution obtained in Working Example 1 was administered in a dose of 1 mL/kg.
(2) Group 2: the aqueous solution obtained in Working Example 1 was administered in a dose of 2 mL/kg.
(3) Group 3: the aqueous solution obtained in Working Example 1 was administered in a dose of 3 mL/kg.
After the quarantined rats fasted overnight (for about 16 hours), the aqueous solution obtained in Working Example 1 was intravenously administered. Blood was collected 0.083 hours, 0.25 hours, 0.5 hours, 1 hour, 4 hours, and 24 hours after the administration, and the concentration of Compound (I) in the blood was measured. The maximum blood concentration, C0 (ng/mL), just after the composition for injection was intravenously administered, and the area under the blood concentration-time curve of Compound (I) over 0 to 24 hours after the administration, AUC0-24 (ng·h/mL), were calculated from the measured concentrations of Compound (I) in the blood at the collection times.

[2] = cited from earlier work
[3] = female rats, aqueous solution of Working Example 1, dose of Compound (I) 1 mg/kg (Group 1)
[4] = female rats, aqueous solution of Working Example 1, dose of Compound (I) 2 mg/kg (Group 2)
[5] = female rats, aqueous solution of Working Example 1, dose of Compound (I) 3 mg/kg (Group 3)
[6] = male rats, aqueous solution of Working Example 1, dose of Compound (I) 1 mg/kg (Group 1)
[7] = male rats, aqueous solution of Working Example 1, dose of Compound (I) 2 mg/kg (Group 2)
[8] = male rats, aqueous solution of Working Example 1, dose of Compound (I) 3 mg/kg (Group 3)

## O=C(Nc1cc(C(F)(F)F)cc(C(F)(F)F)c1)c1cc(Cl)ccc1O [Compound (I), N-[3,5-bis(trifluoromethyl)phenyl]-5-chloro-2-hydroxybenzamide]
[1]; [3]
  C0: 2150 ng/mL
  AUC(0-t): 388 ng·h/mL
[1]; [4]
  C0: 2820 ng/mL
  AUC(0-t): 540 ng·h/mL
[1]; [5]
  C0: 5250 ng/mL
  AUC(0-t): 981 ng·h/mL
[1]; [6]
  C0: 1380 ng/mL
  AUC(0-t): 304 ng·h/mL
[1]; [7]
  C0: 3210 ng/mL
  AUC(0-t): 620 ng·h/mL
[1]; [8]
  C0: 4850 ng/mL
  AUC(0-t): 1260 ng·h/mL
[1]; rats, aqueous solution of Working Example 1, 1 to 3 mL/kg
  Exposure of Compound (I) in vivo: exposed in a dose-dependent manner and in a sufficient amount
[2]
  Water solubility: poor water solubility
